Measured values as given in patent publication US9150543B2, “Substituted indolyl alkyl amino derivatives as inhibitors of histone deacetylase” (Janssen Pharmaceutica N. V., priority 2004, dated 2015).
Values after ≈ are worked out from the molar mass of the structure shown.

Assays:
[1] = target: histone deacetylase (HeLa nuclear extracts); test: In vitro assay for inhibition of histone deacetylase with fluorescent-labelled substrate (C.1.b); format: biochemical; conditions: Fluor de Lys substrate
Experimental: The HDAC Fluorescent Activity Assay/Drug Discovery Kit of Biomol (cat.No: AK-500-0001) was used. The HDAC Fluorescent Activity Assay is based on the Fluor de Lys (Fluorogenic Histone deAcetylase Lysyl) substrate and developer combination. The Fluor de Lys substrate, comprises an acetylated lysine side chain. Deacetylation of the substrate sensitizes the substrate so that, in the second step, treatment with the Fluor de Lys developer produces a fluorophore.
After 30 min, 1 volume of the developer was added. […] For each experiment, controls (containing HeLa nuclear extract and buffer), a blank incubation (containing buffer but no HeLa nuclear extract) and samples (containing compound dissolved in DMSO and further diluted in buffer and HeLa nuclear extract) were run in parallel. In first instance, compounds were tested at a concentration of 10^−5M. […] All sample were tested 4 times. In each test the blank value was subtracted from both the control and the sample values. The control sample represented 100% of substrate deactylation. For each sample the fluorescence was expressed as a percentage of the mean value of the controls. […] Herein the effects of test compounds are expressed as pIC50 (the negative log value of the IC50-value) (see Table F-3).

[2] = test system: A2780 ovarian carcinoma cells; test: Antiproliferative activity on A2780 cells, MTT (C.2); format: cell-based; conditions: Homo sapiens, 96 h, four days of incubation, read-out: Cellular activity pIC50 C.2 (converted)
Experimental: All compounds tested were dissolved in DMSO and further dilutions were made in culture medium. Final DMSO concentrations never exceeded 0.1% (v/v) in cell proliferation assays. Controls contained A2780 cells and DMSO without compound and blanks contained DMSO but no cells. MTT was dissolved at 5 mg/ml in PBS. A glycine buffer comprised of 0.1 M glycine and 0.1 M NaCl buffered to pH 10.5 with NaOH (1N) was prepared (all reagents were from Merck).
The human A2780 ovarian carcinoma cells (a kind gift from Dr. T. C. Hamilton [Fox Chase Cancer Centre, Pennsylvania, USA]) were cultured in RPMI 1640 medium supplemented with 2 mM L-glutamine, 50 μg/ml gentamicin and 10% fetal calf serum. Cells were routinely kept as monolayer cultures at 37° C. in a humidified 5% CO2 atmosphere. Cells were passaged once a week using a trypsin/EDTA solution at a split ratio of 1:40. All media and supplements were obtained from Life Technologies. Cells were free of mycoplasma contamination as determined using the Gen-Probe Mycoplasma Tissue Culture kit (supplier: BioMerieux).
Cells were seeded in NUNC™ 96-well culture plates (Supplier: Life Technologies) and allowed to adhere to the plastic overnight. Densities used for plating were 1500 cells per well in a total volume of 200 μl medium. After cell adhesion to the plates, medium was changed and drugs and/or solvents were added to a final volume of 200 μl. Following four days of incubation, medium was replaced by 200 μl fresh medium and cell density and viability was assessed using an MTT-based assay. To each well, 25 μl MTT solution was added and the cells were further incubated for 2 hours at 37° C. The medium was then carefully aspirated and the blue MTT-formazan product was solubilized by addition of 25 μl glycine buffer followed by 100 μl of DMSO. […] Within an experiment, the results for each experimental condition are the mean of 3 replicate wells. For initial screening purposes, compounds were tested at a single fixed concentration of 10^−6 M. For active compounds, the experiments were repeated to establish full concentration-response curves. For each experiment, controls (containing no drug) and a blank incubation (containing no cells or drugs) were run in parallel. The blank value was subtracted from all control and sample values. For each sample, the mean value for cell growth (in absorbance units) was expressed as a percentage of the mean value for cell growth of the control. […] Herein the effects of test compounds are expressed as pIC50 (the negative log value of the IC50-value)(see Table F-3).

[3] = Solubility/stability at different pH's, chemiluminescent nitrogen detector (C.3.b); format: physicochemical; conditions: aqueous buffer; pH = 2.3
Description: In a second method the solubility of a compound at different pH's can be measured with the use of a Chemiluminescent Nitrogen Detector (see example C.3.b).
The solubility of a compound, at different pH's, can also be measured with the use of a chemiluminescent nitrogen detector. (see Table F-3).

| Compound | melting point [°C] | Enzymatic activity pIC50 C.1.b [1] | IC50 [2] [µM] | solubility [3] [mg/mL] |
| --- | --- | --- | --- | --- |
| O=C(NO)c1cnc(N2CCC(CNCc3c[nH]c4ccc(Cl)cc34)CC2)nc1 [Compound 2] | 205 | 8.4 | 0.0316 |  |
| O=C(NO)c1cnc(N2CCC(CNCc3c[nH]c4ccccc34)CC2)nc1 [Compound 8] |  | 8.3 | 0.0794 | 2.4 (≈ 6.31 mM) |
| O=C(NO)c1cnc(N2CCC(CNCc3cc4ccccc4o3)CC2)nc1 [Compound 10] |  | 8.1 | 0.0316 | 3.7 (≈ 9.7 mM) |
| Cn1c(CNCC2CCN(c3ncc(C(=O)NO)cn3)CC2)cc2ccccc21 [Compound 11] |  | 8.2 | 0.0316 | 2.8 (≈ 7.1 mM) |
| Cc1cccc2c(CNCC3CCN(c4ncc(C(=O)NO)cn4)CC3)c[nH]c12 [Compound 14] |  | 8.4 | 0.0398 | 1.7 (≈ 4.31 mM) |
| Cn1cc(CCNCC2CCN(c3ncc(C(=O)NO)cn3)CC2)c2ccccc21 [Compound 19] | 174 | 8.0 | 0.0794 |  |
| CCN(Cc1cn(CC)c2ccccc12)CC1CCN(c2ncc(C(=O)NO)cn2)CC1 [Compound 20] | 90 | 9.5 | 0.00794 | 2.7 (≈ 6.18 mM) |
| Cn1cc(CCN(CC2CCN(c3ncc(C(=O)NO)cn3)CC2)S(C)(=O)=O)c2cc(Cl)ccc21 [Compound 22] | 183 | 9.1 | 0.0631 |  |
| CCn1c(C)c(CCNC2CCN(c3ncc(C(=O)NO)cn3)CC2)c2ccccc21 [Compound 23] | 182 | 8.4 | 0.0316 |  |
| CCCn1cc(CCN(CC)CC2CCN(c3ncc(C(=O)NO)cn3)CC2)c2ccc(OC)cc21 [Compound 25] | 80 | 7.6 | 0.1 |  |
| Cn1cc(CCNCC2CCN(c3ncc(C(=O)NO)cn3)CC2)c2cc(Cl)ccc21 [Compound 26] | 188 | >9.0 | 0.0316 |  |
| CCCn1cc(CNCC2CCN(c3ncc(C(=O)NO)cn3)CC2)c2cc(Cl)ccc21 [Compound 27] | 171 | >9.0 | 0.01 |  |
| Cc1c(CCNCC2CCN(c3ncc(C(=O)NO)cn3)CC2)c2ccccc2n1C [Compound 28] | 80 | 8.1 | 0.0794 |  |
| Cn1cc(CNCC2CCN(c3ncc(C(=O)NO)cn3)CC2)c2cccc(F)c21 [Compound 30] |  | 9.0 | 0.0316 | 2.1 (≈ 5.09 mM) |
| Cn1cc(CNCC2CCN(c3ncc(C(=O)NO)cn3)CC2)c2cc(Cl)ccc21 [Compound 32] |  | 8.0 | 0.00398 | 1.5 (≈ 3.5 mM) |
| COc1ccc2c(c1)c(CNCC1CCN(c3ncc(C(=O)NO)cn3)CC1)cn2C [Compound 33] |  | 10.0 | 0.0316 | 1.6 (≈ 3.77 mM) |

| Compound | melting point [°C] | Enzymatic activity pIC50 C.1.b [1] | IC50 [2] [µM] | solubility [3] [mg/mL] |
| --- | --- | --- | --- | --- |
| Cc1ccc2c(c1)c(CNCC1CCN(c3ncc(C(=O)NO)cn3)CC1)cn2C [Compound 36] |  | 8.7 | 0.00251 | 2.5 (≈ 6.12 mM) |
| Cn1cc(CNCC2CCN(c3ncc(C(=O)NO)cn3)CC2)c2c(F)cccc21 [Compound 39] |  | 9.0 | 0.0316 | 2 (≈ 4.85 mM) |
| CCCCn1cc(CNCC2CCN(c3ncc(C(=O)NO)cn3)CC2)c2ccccc21 [Compound 43] |  | 8.5 | 0.0158 | 2.1 (≈ 4.81 mM) |
| Cn1ccc2cc(CNCC3CCN(c4ncc(C(=O)NO)cn4)CC3)ccc21 [Compound 44] |  | 8.2 | 0.0398 | 1.8 (≈ 4.56 mM) |
| CCCn1cc(CNCC2CCN(c3ncc(C(=O)NO)cn3)CC2)c2cc3c(cc21)OCO3 [Compound 45] |  | 9.0 | 0.2 | 1.7 (≈ 3.64 mM) |
| COCCn1cc(CNCC2CCN(c3ncc(C(=O)NO)cn3)CC2)c2ccccc21 [Compound 47] |  | 8.8 | 0.01 | 4 (≈ 9.12 mM) |
| Cn1ccc2c(CNCC3CCN(c4ncc(C(=O)NO)cn4)CC3)cccc21 [Compound 49] |  | 8.7 | 0.0316 | 3.3 (≈ 8.37 mM) |
| Cn1ccc2ccc(CNCC3CCN(c4ncc(C(=O)NO)cn4)CC3)cc21 [Compound 50] |  | 8.6 | 0.0251 | 2.4 (≈ 6.08 mM) |
| Cn1cc(CNCC2CCN(c3ncc(C(=O)NO)cn3)CC2)c2cc(C#N)ccc21 [Compound 55] |  | 10.1 | 0.0158 | 2 (≈ 4.77 mM) |
| Cn1ccc2cccc(CNCC3CCN(c4ncc(C(=O)NO)cn4)CC3)c21 [Compound 57] |  | 10.2 | 0.0251 | 2.8 (≈ 7.1 mM) |
| COc1cc2c(CNCC3CCN(c4ncc(C(=O)NO)cn4)CC3)cn(C)c2cc1OC [Compound 60] |  | 8.7 | 0.126 | 3.1 (≈ 6.82 mM) |
| CCN(CCc1cn(C)c2ccc(Cl)cc12)CC1CCN(c2ncc(C(=O)NO)cn2)CC1 [Compound 65] |  | >9.0 | 0.0316 | 1.6 (≈ 3.4 mM) |
| CCN(CCc1cn(C)c2ccccc12)CC1CCN(c2ncc(C(=O)NO)cn2)CC1 [Compound 66] |  | >9.0 | 0.0398 | 1.7 (≈ 3.89 mM) |
| CN(Cc1cn(C)c2ccccc12)CC1CCN(c2ncc(C(=O)NO)cn2)CC1 [Compound 67] |  | 8.3 | 0.0316 | 1.9 (≈ 4.65 mM) |
| CCN(Cc1cn(C)c2ccccc12)CC1CCN(c2ncc(C(=O)NO)cn2)CC1 [Compound 68] |  | >9.0 | 0.0631 | 2.5 (≈ 5.92 mM) |
| Cc1ccc2c(CNCC3CCN(c4ncc(C(=O)NO)cn4)CC3)cn(C)c2c1 [Compound 79] |  | 8.4 | 0.00794 | 2.7 (≈ 6.61 mM) |
